Results published in paper PMC5632533, “Mechanisms of action and in vivo antibacterial efficacy assessment of five novel hybrid peptides derived from Indolicidin and Ranalexin against Streptococcus pneumoniae” (PeerJ, 2017).

How the values were obtained:
Resistant S. pneumoniae = conditions: incubation with resistant S. pneumoniae; ref Jindal et al., 2015; cited from earlier work
[1] = tested on: S. pneumoniae genomic DNA; assay: Gel retardation assay (DNA retardation); assay type: binding, Streptococcus pneumoniae; conditions: 250 ng genomic DNA; 0.24–500 µg/ml tested; 10 min, room temperature; 1% agarose gel
Procedure: This assay was carried out as described previously, with minor modifications ([Li et al., 2013]). S. pneumoniae were grown overnight on Columbia agar with 5% sheep blood. A few bacterial colonies were transferred into a 1.5 ml eppendorf tube containing phosphate buffered saline (PBS). The bacterial cells were centrifuged, PBS was discarded and 50 µl of TE buffer containing 0.08 g/ml of lysozyme and 150 U/ml of mutanolysin was added to the cells. Genomic DNA was isolated from pneumococcal cells using DNeasy Blood & Tissue Kit (Qiagen, Hilden, Germany), following the manufacturer’s giudlines. The optical density ratio of 260 nm and 280 nm (OD260∕OD280 = 1.83) was used to measure the purity of the DNA. Genomic DNA (250 ng) was incubated with hybrid peptides at various concentrations (0.24–500 µg/ml) in 12 μl at room temperature for 10 min. 2 μl of loading buffer were added to the mixture and the migration of DNA through 1% agarose gel was evaluated by electrophoresis in 1 × Tris borate–EDTA buffer (45 mM Tris–borate and 1 mM EDTA at pH 8.0) and spotted by the fluorescence of gel stain (Gel Red, BIOTIUM, Fremont, CA, USA). The natural peptide indolicidin was used as positive controls, ceftriaxone and erythromycin were used as negative controls.

S. pneumoniae [2] = assay: ATP efflux assay; assay type: cell-based, Streptococcus pneumoniae; conditions: peptides 125 µg/ml (RN7-IN7 500 µg/ml); for ATP released, Average 1hr / ATP released, Average 2hr / ATP released, Average 3hr: raw data sheet, mean of 3
Procedure: The amount of ATP released from pneumococcal cells incubated with hybrid peptides was measured as described previously, with a slight modification ([Tanida et al., 2006]). The ATP determination kit (Molecular Probes, Eugene, OR, USA) was used to measure the amount of ATP released based on the luciferin/luciferase method according to the manufacturer’s instructions. Briefly, S. pneumoniae were grown overnight on Columbia agar with 5% sheep blood. Bacterial suspensions were spectrophotometrically adjusted to (1 × 10^7 CFU/ml) and incubated with hybrid peptides RN7-IN10, RN7-IN9, RN7-IN8 and RN7-IN6 at 125 µg/ml and with RN7-IN7 at 500 µg/ml. The amount of ATP released form the pneumococcal cells were measured at three time points 1, 2 and 3 h. The samples were then centrifuged at 5,000 rpm for 5 min, and ATP efflux was subsequently estimated using an ATP standard curve. Values were obtained from three independent experiments. Ceftriaxone and erythromycin were used as positive controls.

[3] = tested on: S. pneumoniae (highly virulent strain); assay: In vivo antipneumococcal activity, pneumococcal bacteremia (lethal systemic infection) model; set-up: species or system mice
Procedure: Two pneumococcal infection models developed previously in our lab ([Le et al., 2015]) were used to assess the therapeutic efficacy of peptides in vivo. The systemic infection model was used to mimic pneumococcal bacteremia in humans and the pneumococcal pneumonia model was used to mimic pneumococcal pneumonia in humans. A highly virulent strain was used in both the models. The bacterial isolate was grown overnight on Columbia agar with 5% sheep blood at 37 °C under 5% CO2. The bacterial suspension was adjusted to OD625 0.08-0.1 (1 ∼ 2 × 10^8 CFU/ml). Mice tested for lethal systemic infection were inoculated with 1.5 × 10^2 CFU/mouse (100 μl) via IP route. Mice used to assess the Pneumococcal pneumonia model were inoculated with pneumococcal cells of 5 × 10^3 CFU/mouse (50 μl) via the intrathoracic route.
After 1 hr of inoculation, Mice receiving treatment were randomized and divided into six groups. RN7-IN10 and RN7-IN8 were tested at three different doses for each (5 mg/kg, 10 mg/kg and 20 mg/kg) using a group of 10 mice. Graded doses of ceftriaxone (5 mg/kg, 10 mg/kg, […], 40 mg/kg and 80 mg/kg) were also tested to assess the in vivo antibacterial activity of this antibiotic. Only mice injected with PBS were served as uninfected control. Mice injected with bacterial inoculum were used as untreated control group and given sterile distilled water only. Survival of mice was documented for seven days or until death. After seven days, the experiment was ended, the blood and homogenates of the five major organs (kidney, brain, spleen, liver and lung) of the surviving mice were plated on Columbia agar with 5% sheep blood, to detect the presence of pneumococcal cells. […]

S. pneumoniae [4] = assay: Transmission electron microscopy (TEM) of treated cells; assay type: cell-based, Streptococcus pneumoniae; conditions: 10^8 CFU/ml in CAMHB; 8 × MIC (125 µg/ml; RN7-IN7 500 µg/ml); 1 h, 37 °C, 5% CO2
Procedure: Bacteria were prepared for TEM according to the guidelines of the Electron Microscopy Unit at the Faculty of Medicine, University of Malaya. S. pneumoniae cultures were grown overnight on Columbia agar with 5% sheep blood and suspended in cationally adjusted Mueller-Hinton broth (CAMHB) at 10^8 CFU/ml. […] Cells in cationally adjusted Mueller-Hinton broth (CAMHB) were used as an untreated control. After an hour of incubation, the pneumococcal cells were centrifuged to discard the medium, washed thrice with 10 mM phosphate buffer saline at pH 7.3 and fixed overnight in 4% (v/v) glutaraldehyde. All samples were washed twice with cacodylate buffer, incubated for 2 h in osmium tetroxide buffer (OsO4 1: 1 cacodylate), washed twice with cacodylate buffer and then incubated overnight in cacodylate buffer. All the samples were washed with distilled water twice and incubated for 10 min with uranyl acetate. After this, all samples were then washed twice with distilled water and dehydrated in an ascending series of ethanol: 35% (10 min), 50% (10 min), 70% (10 min), 95% (15 min), and thrice in 100% ethanol (15 min). After dehydration, samples were incubated with propylene oxide (15 min), propylene oxide 1:1 Epon (1 h), propylene oxide 1:3 Epon (2 h) and finally incubated overnight with Epon. All the samples were embedded in agar 100 resin at 37 °C for 5 hr and maintained at 60 °C until viewing. Reichert Ultramicrotome copper grids 3.05 mm (300 square mesh) (Agar Scientific, Essex, United Kingdom) were used to prepare Ultrathin sections. Ethanol-based uranyl acetate and lead citrate were used to stain the samples for 5 min. Transmission electron microscope (Leo Libra 120) was used to capture the images.

Streptococcus pneumoniae = conditions: 30 pneumococcal clinical isolates; earlier study; ref Jindal et al., 2015; cited from earlier work
Source text: Table 1 Sequences and physicochemical properties of the template and hybrid AMPs. | column: MIC^a || One of the advantageous alternatives to today’s antibiotics is antimicrobial peptides (AMPs) ([Deslouches et al., 2013]; [Sánchez-Vásquez et al., 2013]). AMPs are synthesized by almost all living beings as the first line of defense in their immune system against microbial infection. Many aspects favor AMPs over traditional antibiotics: a broad range of antimicrobial activity against pathogenic micro-organisms (including viruses, parasites, bacteria, and fungi), microbial pathogens are less efficient in developing resistance against AMPs, as killing take place in a short contact time and AMPs c ...

[5] = 1 × 10^7 CFU/ml, luciferin/luciferase, ATP standard curve, mean ± SD, three independent experiments

Compound	concentration inhibiting migration of genomic DNA through the agarose gel [1] [µg/mL]	ATP released from pneumococcal cells after 1 h (S. pneumoniae [2]; [5]) [pM]	ATP released, Average 1hr (S. pneumoniae [2]) [pM]	ATP released, Average 2hr (S. pneumoniae [2]) [pM]	ATP released, Average 3hr (S. pneumoniae [2]) [pM]	MIC, minimum inhibitory concentration (Streptococcus pneumoniae) [µg/mL]	further results
CO/N=C(\C(=O)N[C@@H]1C(=O)N2C(C(=O)O)=C(CSc3nc(=O)c(=O)[nH]n3C)CS[C@H]12)c1csc(N)n1 [ceftriaxone, reference compound]	> 500	5.24 ± 1.43	5.248	3.522	3.119		time to bactericidal activity / elimination of S. pneumoniae (Resistant S. pneumoniae): > 240 min; survival of infected mice up to seven days post-infection ([3]; 1.5 × 10^2 CFU/mouse IP, treatment IP 5 mg/kg (peptides at 1 h, 12 h, 24 h post-infection), 10 mice): 10%; survival of infected mice up to seven days post-infection ([3]; 1.5 × 10^2 CFU/mouse IP, treatment IP 10 mg/kg (peptides at 1 h, 12 h, 24 h post-infection), 10 mice): 30%; survival of infected mice up to seven days post-infection ([3]; 1.5 × 10^2 CFU/mouse IP, treatment IP 20 mg/kg (peptides at 1 h, 12 h, 24 h post-infection), 10 mice): 40%; survival of infected mice up to seven days post-infection ([3]; treatment IP 40 mg/kg): 70%; survival of infected mice up to seven days post-infection ([3]; treatment IP 80 mg/kg): 90%
FLGGLIKPWWPWRR-NH2 [RN7-IN7, hybrid peptide of ranalexin (residues 1-7) and indolicidin (residues 7-13)]		22.35 ± 0.9				62.5	ATP released from pneumococcal cells after 3 h (S. pneumoniae [2]; [5]): 13.02 ± 2.26 pM; TEM: detachment of cell wall from cell membrane (S. pneumoniae [4]): partial disconnection of the cell wall from the cell membrane
ILPWKWPWWPWRR-NH2 [Indolicidin, natural template (parent) antimicrobial peptide]	62.5					15.62 to 31.25	
CC[C@H]1OC(=O)[C@H](C)[C@@H](O[C@H]2C[C@@](C)(OC)[C@@H](O)[C@H](C)O2)[C@H](C)[C@@H](O[C@@H]2O[C@H](C)C[C@H](N(C)C)[C@H]2O)[C@](C)(O)C[C@@H](C)C(=O)[C@H](C)[C@@H](O)[C@]1(C)O [erythromycin, reference compound]	> 500	0.49 ± 0.004	0.4933	0.4736	0.3124		
FLGGLIKIVPAMICAVTKKC-OH [Ranalexin, natural template antimicrobial peptide]						62.5	
